Data: patent US7345035B2, “Treatment of osteoporosis and autoimmune disease with astrogorgiadiol” (University of Delaware, priority 2003, dated 2008)

Legend:
[1] = tested on: osteopontin mRNA; experiment: Northern blot of osteopontin mRNA in ROS 17/2.8 cells; assay type: cell-based
Experimental: Changes in levels of mRNA encoding osteopontin induced by astrogorgiadiol were studied by Northern blot. Northern blot analysis was performed as described in Farach-Carson American Journal of Physiology 265: F705-F711 (1993), modified to include varying concentrations of astrogorgiadiol.
Briefly, […] cells were treated with 1 nM 1, 25 (OH)2vitD3 (BIOMOL Research Laboratories Inc., Plymouth Meeting, Pa.) or 1 nM 1, 25 (OH)2 vitD3 and 3 nM, 30 nM or 300 nM astrogorgiadiol for 0, 3 or 24 hours prior to harvest or with 3 nM, 30 nM or 300 nM astrogorgiadiol. mRNA was extracted using standard techniques. Osteopontin mRNA was detected using a ^32P-labeled osteopontin cDNA probe.

[2] = tested on: starfish eggs; details: cited from earlier work

Structure (SMILES)	1,25 (OH)2 vitD3-induced osteopontin mRNA level (Northern blot) ([1]; 3 nM astrogorgiadiol with 1 nM 1,25 (OH)2 vitD3, ROS 17/2.8 cells)	osteopontin mRNA level (Northern blot) ([1]; 30 nM astrogorgiadiol with 1 nM 1,25 (OH)2 vitD3, ROS 17/2.8 cells)	osteopontin mRNA level (Northern blot) ([1]; 300 nM astrogorgiadiol with 1 nM 1,25 (OH)2 vitD3, ROS 17/2.8 cells)	osteopontin mRNA level (Northern blot), dose dependence ([1]; ROS 17/2.8 cells, 3 nM, 30 nM or 300 nM astrogorgiadiol, with 1 nM 1,25 (OH)2 vitD3)	concentration effective to downregulate osteopontin RNA production ([1]; in cells in vitro)	cell division of starfish eggs [2]	osteopontin mRNA level (Northern blot) ([1]; ROS 17/2.8 cells, 1 nM 1,25 (OH)2 vitD3, 0, 3 or 24 hours prior to harvest)
Cc1ccc(O)cc1CC[C@@H]1[C@H](O)CC[C@]2(C)[C@@H]([C@H](C)CCCC(C)C)CC[C@@H]12 [astrogorgiadiol, Astrogorgiadiol]	decreased 1,25 (OH)2 vitD3-induced osteopontin mRNA to levels approaching control levels	decreased the level of osteopontin mRNA below control levels	decreased the level of osteopontin mRNA below control levels	downregulated osteopontin mRNA in a dose-dependent manner	3 to 300 nM	inhibit cell division of starfish eggs	–
C=C1/C(=C\C=C2/CCC[C@]3(C)[C@@H]([C@H](C)CCCC(C)(C)O)CC[C@@H]23)C[C@@H](O)C[C@@H]1O [1,25 (OH)2 vitD3, reference compound]	–	–	–	–	–	–	increased osteopontin mRNA
